Earlier results in patent publication US10028967B2, “Medicament” (Symrise AG, priority 2014, dated 2018).

Conditions: oral phenylephrine, compared to intravenous pseudoephedrine; reduced and variable

bioavailability: up to 38%
Structure (SMILES): CNC[C@H](O)c1cccc(O)c1 [Phenylephrine]
